Laboratory results published in publication PMC11342128, “Gold(I) and gold(III) carbene complexes from the marine betaine norzooanemonin: inhibition of thioredoxin reductase, antiproliferative and antimicrobial activity” (RSC Medicinal Chemistry, 2024).
“And” between values parts separate entries of the source, which are not always exact repeats. Equal values may be shown once. Read-outs that look alike come from different tables or passages of the source.

What was measured:
[1] = system: Pseudomonas aeruginosa DSM 24068; assay: Antibacterial activity (MIC, curve fitting); format: cell-based; details: for MIC, P.a.: Table 2, Pseudomonas aeruginosa DSM 24068, 18 h, 37 °C; for MIC, P. aeruginosa: Table S12, ± standard error of the mean
Method: (§1) The antibacterial activity of all gold complexes was assessed against six pathogenic bacterial strains, including two Gram-positive species, i.e. Enterococcus faecium and methicillin-resistant Staphylococcus aureus (MRSA), and four Gram-negative species, i.e. Acinetobacter baumannii, Escherichia coli, Klebsiella pneumoniae, and Pseudomonas aeruginosa. Minimum inhibitory concentrations (MICs) were determined using a curve-fitting technique.
(§2) S2.1. Antibacterial Studies
(§3) Bacterial cultures were prepared by overnight aerobic incubation at 37 °C. Gram-negative strains were cultivated in Müller Hinton broth supplemented with 1% glucose at pH 7.2, while Gram-positive strains were grown in Trypticase soy yeast extract medium (TSY) with a composition of 30 g/l trypticase soy broth, 3 g/l yeast extract, and pH 7.2. The cultures were adjusted to an OD600 of 0.001, resulting in a final starting OD600 of 0.0005 for the subsequent tests. For testing, 25 μL of the prepared culture was combined with 25 μL of serially diluted test compounds in 384 well plates, following established protocols for different strains. Screening was performed at compound concentrations of 0.5, 5, and 50 µM, and for selected compounds, growth inhibition curves were recorded using DMSO stock solutions […]
(§4) Positive control compounds, namely linezolid (for MRSA strains), ciprofloxacin (for E. faecium and E. coli), and amikacin (for P. aeruginosa), were included. The maximum DMSO concentration in the assay […]
(§5) After an 18-hour incubation at 37 °C under moist conditions, the optical density at 600 nm was measured using a Fusion Universal Microplate Analyser (Perkin–Elmer, Waltham, USA). The minimum inhibitory concentration (MIC) values, representing the […]
(§6) fitting with Sigma Plot. The bacterial strains used included Gram-negative strains: Escherichia coli (DSM 1116), A. baumannii (DSM30007), K. pneumoniae (DSM111678), and Pseudomonas aeruginosa PA7 (DSM 24068); and Gram-positive strains: E. faecium (DSM20477) and Staphylococcus aureus MRSA

[2] = system: Escherichia coli DSM 1116; assay: Antibacterial activity (MIC, curve fitting); format: cell-based; details: for MIC, E.c.: Table 2, Escherichia coli DSM 1116, 18 h, 37 °C; for MIC, E. coli: Table S12, ± standard error of the mean
Method: as §1, §2, §3, §4, §5, §6

[3] = system: Enterococcus faecium DSM20477; assay: Antibacterial activity (MIC, curve fitting); format: cell-based; details: for MIC, E.f.: Table 2, Enterococcus faecium DSM20477, 18 h, 37 °C; for MIC, E. faecium: Table S12, ± standard error of the mean
Method: as §1, §2, §3, §4, §5, §6

[4] = system: methicillin-resistant Staphylococcus aureus DSM 11822; assay: Antibacterial activity (MIC, curve fitting); format: cell-based
Method: as §1, §2, §3, §4, §5, §6

[5] = system: Acinetobacter baumannii DSM30007; assay: Antibacterial activity (MIC, curve fitting); format: cell-based; details: for MIC, A.b.: Table 2, Acinetobacter baumannii DSM30007, 18 h, 37 °C; for MIC, A. baumannii: Table S12, ± standard error of the mean
Method: as §1, §2, §3, §4, §5, §6

[6] = system: Klebsiella pneumoniae DSM111678; assay: Antibacterial activity (MIC, curve fitting); format: cell-based; details: for MIC, K.p.: Table 2, Klebsiella pneumoniae DSM111678, 18 h, 37 °C; for MIC, K. pneumoniae: Table S12, ± standard error of the mean
Method: as §1, §2, §3, §4, §5, §6

[7] = system: MDA-MB-231 breast cancer cells; set-up: method as in PMID 38205632; details: read-out: Antiproliferative activity IC50, MDA-MB-231; cited from earlier work
TrxR from E. coli [8] = target: T1, TrxR from E. coli (Escherichia coli, UniProt P0A9P4); details: read-out: Inhibition of bacterial TrxR, IC50; isolated E. coli TrxR; investigated in previous report; cited from earlier work
TrxR from E. coli [9] = target: T1, TrxR from E. coli; assay: Inhibition of isolated bacterial TrxR, DTNB-based assay; format: biochemical; set-up: purchased Sigma-Aldrich; details: for TrxR activity, % of control: compounds at 0.5 µM, n = 2, Table S13; for IC50: isolated E. coli TrxR, DTNB assay, ± standard deviation, n = 3
Method: The inhibition of isolated TrxR from E. coli was determined for the selected monocarbene gold(I/III) complexes 2a–c and 4b–c using a DTNB-based assay (Table 3). […] The inhibition of bacterial TrxR for compound 2a was investigated in our previous report (Table 3).
S2.3. Inhibition of bacterial TrxR from E. coli
The TrxR (E. coli) inhibition assay was performed according to previously published procedures.[8] The assay is partly based on the procedure developed by Lu et al[9] and makes use of the reduction of DTNB (5,5′-dithiobis-(2-nitrobenzoic acid)). Solutions of E. coli TrxR (10.1 U/mL) and E. coli thioredoxin (Trx) (312 μg/mL) (both purchased from Sigma-Aldrich) were prepared in distilled water. Stock solutions of the test compounds (2 mM) were prepared in DMSO and serially diluted with TE buffer (Tris-HCl 50 mM, EDTA 1 mM, pH 7.5). 20 μL of these solutions or TE buffer without the test compounds (positive control) were mixed with the TrxR solution (10 μL), the Trx solution (10 μL) and 100 µl of NADPH (200 μM) in TE buffer in a well on a 96-well plate. As a blank control, 200 μM NADPH in TE buffer (100 μL) mixed with a DMSO / buffer mixture (40 μL) was used (final concentrations of DMSO: 0.5% v/v). The plate was incubated for 75 min at 25°C with moderate shaking. After incubation, 100 μL of a reaction mixture (TE buffer containing 200 μM NADPH and 5 mM DTNB) was added to each well to initiate the reaction. After thorough mixing, the formation of 5-TNB was monitored by a microplate reader at 405 nm in 35 s intervals (10 measurements). The values were corrected by subtraction of the blank solution absorption values. The increase in concentration of 5-TNB followed a linear trend (r2≥ 0.990) and the enzymatic activities were calculated as the gradients (increase in absorbance per second) thereof. […]
for each test compound, where the highest test compound concentration was used and the enzyme solution was replaced by TE buffer. The inhibition is presented as the mean IC50 values and standard deviations obtained in three independent experiments.
Table S13. Activity of TrxR from E. coli in presence of compounds at 0.5 µM (n = 2, n.d.= not

[10] = system: HT-29 colon carcinoma cells; set-up: method as in PMID 38205632; details: read-out: Antiproliferative activity IC50, HT-29; cited from earlier work
[11] = system: MCF-7 breast adenocarcinoma cells; set-up: method as in PMID 38205632; details: read-out: Antiproliferative activity IC50, MCF-7; cited from earlier work
[12] = system: A549 lung carcinoma cells; set-up: method as in PMID 38205632; details: read-out: Antiproliferative activity IC50, A549; cited from earlier work
[13] = system: Vero E6 African green monkey kidney cells; assay: Antiproliferative activity in non-tumour reference cell line; format: cell-based; details: Vero E6 non-tumour reference cell line; SD in parentheses, n = 3
Method: (§7) The antiproliferative potential of the gold–NHC complexes was determined in A549 lung carcinoma cells, MDA-MB-231 breast cancer cells, MCF-7 breast adenocarcinoma cells, and HT-29 colon carcinoma cells (Table 1). Vero E6 African green monkey kidney cells served as a reference cell line to check for possible tumour selectivity. Auranofin (AF) was used as an established reference drug.[15,17] […]
(§8) S2.2. Cytotoxicity and Anticancer Studies
(§9) Cell culture and cytotoxicity
(§10) Cell lines were sourced from DSMZ (German Collection of Microorganisms and Cell Cultures GmbH) and maintained through standard procedures in Dulbecco's Modified Eagle Medium (DMEM) supplemented with 10% fetal calf serum and 50 mg/L gentamycin. Antiproliferative effects were assessed using a well-established assay protocol. In brief, 100 μL volumes of A549 cells (13,243 cells per mL), HT-29 cells (14,657 cells per mL), MDA-MB-231 cells (6,613 cells per mL), or MCF-7 cells (6,917 cells per mL) were transferred into the wells of 96-well plates and incubated at 37°C/5% CO2 for 72 […]
(§11) Freshly prepared stock solutions of the compounds in DMSO were diluted with the respective cell culture medium to achieve graded concentrations (final concentration of DMSO: 0.1% v/v). After 72 hours (A549, HT-29) or 96 hours (MCF-7, MDA-MB-231) of exposure, the cell biomass was assessed through crystal violet staining, and the IC50 value was determined as the concentration causing 50% inhibition of cell proliferation compared to an untreated control. Results were calculated as the mean values of three independent experiments.

[14] = system: MDA-MB-231 breast cancer cells; assay: Antiproliferative activity, crystal violet assay; format: cell-based; details: 96 h exposure, SD in parentheses, n = 3
Method: as §7, §8, §9, §10, §11

[15] = system: A549 lung carcinoma cells; assay: Antiproliferative activity, crystal violet assay; format: cell-based; details: 72 h exposure, SD in parentheses, n = 3
Method: as §7, §8, §9, §10, §11

[16] = system: HT-29 colon carcinoma cells; assay: Antiproliferative activity, crystal violet assay; format: cell-based; details: 72 h exposure, SD in parentheses, n = 3
Method: as §7, §8, §9, §10, §11

[17] = system: MCF-7 breast adenocarcinoma cells; assay: Antiproliferative activity, crystal violet assay; format: cell-based; details: 96 h exposure, SD in parentheses, n = 3
Method: as §7, §8, §9, §10, §11

[18] = Table 2, MRSA DSM 11822, 18 h, 37 °C
[19] = Table S12, ± standard error of the mean

T1 sequence (P0A9P4 2-321): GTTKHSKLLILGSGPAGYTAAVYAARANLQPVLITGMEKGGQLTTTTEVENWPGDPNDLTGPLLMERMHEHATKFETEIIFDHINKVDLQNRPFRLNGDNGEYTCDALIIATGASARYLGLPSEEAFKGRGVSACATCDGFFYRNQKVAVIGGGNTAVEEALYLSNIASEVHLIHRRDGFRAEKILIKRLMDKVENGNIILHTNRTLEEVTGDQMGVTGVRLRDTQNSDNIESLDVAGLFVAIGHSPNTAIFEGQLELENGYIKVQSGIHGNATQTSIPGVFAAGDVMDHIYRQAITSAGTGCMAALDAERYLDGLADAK

## Cn1cc(C(=O)O)[n+](C)[c]1[Au-][Cl] [2a]
[1]
  MIC, P.a.: >100 µM
  MIC, P. aeruginosa: > 100 µM
[2]
  MIC, E.c.: 86 ± 0 µM
  MIC, E. coli: 85.89 ± 0 µM
[3]
  MIC, E.f.: >100 µM
  MIC, E. faecium: > 100 µM
[4]; [18]
  MIC, MRSA: >100 µM
[4]; [19]
  MIC, MRSA: > 100 µM
[5]
  MIC, A.b.: 43 ± 0 µM
  MIC, A. baumannii: 42.95 ± 0 µM
[6]
  MIC, K.p.: 43 ± 7 µM
  MIC, K. pneumoniae: 42.95 ± 6.75 µM
[7]
  IC50: 76.1 µM
TrxR from E. coli [8]
  IC50: 0.786 ± 0.118 µM
TrxR from E. coli [9]
  TrxR activity, % of control: 94.6 % of control
[10]
  IC50: 63.9 µM
[11]
  IC50: 53.4 µM
[12]
  IC50: 60 µM

## CCOC(=O)c1cn(C)[c]([Au-]([Cl])([Cl])[Cl])[n+]1C [4c]
[1]
  MIC, P.a.: >100 µM
  MIC, P. aeruginosa: > 100 µM
[2]
  MIC, E.c.: 34 µM and 34 ± 0 µM
  MIC, E. coli: 33.93 ± 0 µM
[3]
  MIC, E.f.: 17 µM and 17 ± 0 µM
  MIC, E. faecium: 16.97 ± 0 µM
[4]; [18]
  MIC, MRSA: 17 µM and 17 ± 2 µM
[4]; [19]
  MIC, MRSA: 16.97 ± 2.67 µM
[5]
  MIC, A.b.: 8 µM and 8 ± 1 µM
  MIC, A. baumannii: 8.48 ± 1.33 µM
[6]
  MIC, K.p.: 34 µM and 34 ± 5 µM
  MIC, K. pneumoniae: 33.93 ± 5.33 µM
TrxR from E. coli [9]
  TrxR activity, % of control: 28.5 % of control
  IC50: 0.381 ± 0.053 µM
[13]
  IC50: 20.7 µM
[14]
  IC50: 11.1 µM
[15]
  IC50: 17.9 µM
[16]
  IC50: 28.4 µM
[17]
  IC50: 14.6 µM

## Cn1cc(C(=O)O)[n+](C)[c]1[Au-]([Cl])([Cl])[Cl] [4a]
[1]
  MIC, P.a.: >100 µM
  MIC, P. aeruginosa: > 100 µM
[2]
  MIC, E.c.: 72 ± 0 µM
  MIC, E. coli: 72.16 ± 0 µM
[3]
  MIC, E.f.: >100 µM
  MIC, E. faecium: > 100 µM
[4]; [18]
  MIC, MRSA: >100 µM
[4]; [19]
  MIC, MRSA: > 100 µM
[5]
  MIC, A.b.: 36 ± 3 µM
  MIC, A. baumannii: 36.08 ± 2.83 µM
[6]
  MIC, K.p.: 36 ± 6 µM
  MIC, K. pneumoniae: 36.08 ± 5.67 µM
TrxR from E. coli [9]
  TrxR activity, % of control: 86.1 % of control
[13]
  IC50: 42.4 µM
[14]
  IC50: 31.8 µM
[15]
  IC50: 36.1 µM
[16]
  IC50: > 90 µM
[17]
  IC50: 47.8 µM

## COC(=O)c1cn(C)[c]([Au-]([Cl])([Cl])[Cl])[n+]1C [4b]
[1]
  MIC, P.a.: >100 µM
  MIC, P. aeruginosa: > 100 µM
[2]
  MIC, E.c.: 35 µM and 35 ± 0 µM
  MIC, E. coli: 34.97 ± 0 µM
[3]
  MIC, E.f.: 17 µM and 17 ± 0 µM
  MIC, E. faecium: 17.49 ± 0 µM
[4]; [18]
  MIC, MRSA: 17 µM and 17 ± 0 µM
[4]; [19]
  MIC, MRSA: 17.49 ± 0 µM
[5]
  MIC, A.b.: 9 µM and 9 ± 2 µM
  MIC, A. baumannii: 8.74 ± 1.82 µM
[6]
  MIC, K.p.: 35 µM and 35 ± 0 µM
  MIC, K. pneumoniae: 34.97 ± 0 µM
TrxR from E. coli [9]
  TrxR activity, % of control: 36.5 % of control
  IC50: 0.362 ± 0.033 µM
[13]
  IC50: 22.2 µM
[14]
  IC50: 15.2 µM
[15]
  IC50: 17.7 µM
[16]
  IC50: 26.2 µM
[17]
  IC50: 15.2 µM
